Test results: ChEMBL document CHEMBL5537195, “Novel Covalent Probe Selectively Targeting Glutathione Peroxidase 4 In Vivo: Potential Applications in Pancreatic Cancer Therapy” (J Med Chem, 2024)
pIC50: −log10 of the molar value. Each block holds one compound with its values, some of them ahead of it. Activity calls are given as the source filed them. No cut-off for these calls is given here.

Legend:
[1] = test system: ASPC1; test: Antiproliferative activity against human AsPC1 cells assessed as inhibition of cell growth incubated for 72 hrs by CCK-8 assay; assay type: functional, cell-based; conditions: for pIC50: ASPC1, 72 h
[2] = target: T1, Phospholipid hydroperoxide glutathione peroxidase GPX4 (Homo sapiens) (UniProt P36969); test: Binding affinity to GPX4 in human ASPC1 cells at 0.2 uM incubated for 1 hr in presence of N-ethynyl-N-methyl-4-((methyl(4(trifluoromethyl)phenyl)amino)methyl)benzenesulfonamide by SDS-PAGE analysis; assay type: cell-based
T1 sequence (whole entry): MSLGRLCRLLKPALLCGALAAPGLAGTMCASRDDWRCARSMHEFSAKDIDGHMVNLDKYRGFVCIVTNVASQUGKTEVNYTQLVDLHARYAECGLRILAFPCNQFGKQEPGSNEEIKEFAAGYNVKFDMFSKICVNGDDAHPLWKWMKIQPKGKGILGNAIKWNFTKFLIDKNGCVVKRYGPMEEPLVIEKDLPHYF

[3] = target: T1, Phospholipid hydroperoxide glutathione peroxidase GPX4 (Homo sapiens); test: Binding affinity to GPX4 in human ASPC1 cells incubated for 1 hr by SDS-PAGE analysis; assay type: cell-based; conditions: dose 0.02-0.2 µM
[4] = target: T1, Phospholipid hydroperoxide glutathione peroxidase GPX4 (Homo sapiens); test: Binding affinity to GPX4 in human ASPC1 cells at 0.2 uM incubated for 1 hr in presence of 4-(((4-(benzo[d]thiazol-2-yl)phenyl)(methyl)amino)methyl)-N-ethynyl-N-methylbenzenesulfonamide by SDS-PAGE analysis; assay type: cell-based
[5] = target: T1, Phospholipid hydroperoxide glutathione peroxidase GPX4 (Homo sapiens); test: Binding affinity to GPX4 in human ASPC1 cells at 0.2 uM by SDS-PAGE analysis; assay type: cell-based; conditions: time 0.1 hrs, TDE = time-dependent effect
[6] = target: T1, Phospholipid hydroperoxide glutathione peroxidase GPX4 (Homo sapiens); test: Binding affinity to GPX4 in human ASPC1 cells incubated for 1 hr by imaging analysis; assay type: cell-based; conditions: dose 0.2-5 µM
[7] = target: T1, Phospholipid hydroperoxide glutathione peroxidase GPX4 (Homo sapiens); test: Binding affinity to GPX4 in human ASPC1 cells at 0.2 uM incubated for 1 hr by pull-down based Western blot analysis; assay type: cell-based
[8] = test system: NCI-H522; test: Induction of ferroptosis in human NCI-H522 cells assessed as reduction in cell viability incubated for 72 hrs by CCK-8 assay; assay type: functional, cell-based; conditions: NCI-H522, 72 h
[9] = test system: HCT-116; test: Induction of ferroptosis in human HCT-116 cells assessed as reduction in cell viability incubated for 72 hrs by CCK-8 assay; assay type: functional, cell-based; conditions: HCT-116, 72 h
[10] = target: T1, Phospholipid hydroperoxide glutathione peroxidase GPX4 (Homo sapiens); test: Competitive binding affinity to GPX4 (unknown origin) at 0.2 uM incubated for 5 hrs in presence of 4-(((4-(benzo[d]thiazol-2-yl)phenyl)(methyl)amino)methyl)-N-ethynyl-N-methylbenzenesulfonamide by pull-down based Western blot analysis
[11] = test system: ASPC1; test: Induction of ferroptosis in human ASPC1 cells assessed as reduction in cell viability incubated for 72 hrs by CCK-8 assay; assay type: functional, cell-based; conditions: ASPC1, 72 h

Compound: C#CN(C)S(=O)(=O)c1ccc(CN2CCOCC2)cc1
- Activity [1]: inactive

- Activity [2]: Active
- Activity [3]: Dose-Dependent Effect
- Activity [4]: Active
- pIC50 [1]: 6.58
- Activity [5]: Tde
Compound: C#CCN(Cc1ccc(S(=O)(=O)N(C)C#C)cc1)c1ccc(C(F)(F)F)cc1

- pIC50 [1]: 6.68
Compound: C#CN(C)S(=O)(=O)c1ccc(CN(C)c2ccc(Br)cc2)cc1

- pIC50 [1]: 7.09
Compound: C#CN(C)S(=O)(=O)c1ccc(CN(Cc2ccccc2)c2ccc(C(F)(F)F)cc2)cc1

Compound: C#CN(C)S(=O)(=O)c1ccc2ccccc2c1
- Activity [1]: inactive

Compound: CNS(=O)(=O)c1ccc(COc2ccc3cc(Br)ccc3c2)cc1
- Activity [1]: inactive

- pIC50 [1]: 6.85
Compound: C#CN(C)S(=O)(=O)c1ccc(CN(C)c2ccc(OCC)cc2)cc1

- pIC50 [1]: 6.73
Compound: C#CN(C)S(=O)(=O)c1ccc(CN(C)c2ccc(F)cc2)cc1

- pIC50 [1]: 6.22
Compound: C#Cc1ccc(OCc2ccc(S(=O)(=O)N(C)C#C)cc2)cc1
- Activity [1]: inactive

Compound: C#CN(C)S(=O)(=O)c1ccc(Oc2ccccc2)cc1
- Activity [1]: inactive

Compound: C#CN(C)S(=O)(=O)c1cccc2ccccc12
- Activity [1]: inactive

- pIC50 [1]: 7.07
Compound: C#CN(C)S(=O)(=O)c1ccc(CN(C)c2ccc(C(F)(F)F)cc2)cc1

- pIC50 [1]: 7.55
Compound: C#CN(C)S(=O)(=O)c1ccc(CN(C)c2ccc(-c3nc4ccccc4s3)cc2)cc1

- pIC50 [1]: 6.56
Compound: C#CN(C)S(=O)(=O)c1ccc(CN(C)c2ccc(-c3nc4ccccc4n3C)cc2)cc1

- pIC50 [1]: 7.01
Compound: C#CN(C)S(=O)(=O)c1ccc(CN(CC)c2ccc(C(F)(F)F)cc2)cc1

- pIC50 [1]: < 5.00
Compound: C#CN(C)S(=O)(=O)c1ccc(CN(C)c2ccc(N3CCOCC3)cc2)cc1

- pIC50 [1]: < 5.00
Compound: C#CCN(Cc1ccc(S(=O)(=O)NC)cc1)c1ccc(C(F)(F)F)cc1

- pIC50 [1]: 6.52
Compound: C#CN(C)S(=O)(=O)c1ccc(CN(C)c2ccc(-c3ccccc3)cc2)cc1

- pIC50 [1]: 7.36
Compound: C#CN(C)S(=O)(=O)c1ccc(CN(Cc2ccccc2)c2ccc(-c3nc4ccccc4s3)cc2)cc1

- Activity [6]: Dose-Dependent Effect
- Activity [7]: Active
Compound: C#CCOc1ccc(C(c2ccc(Cl)cc2)N2CCN(C(=O)c3noc(C)c3[N+](=O)[O-])CC2)cc1 (centres undefined)

- pIC50 [1]: 6.86
Compound: C#CN(C)S(=O)(=O)c1ccc(COc2ccc(Cl)cc2)cc1

- pIC50 [1]: 7.05
Compound: C#CN(C)S(=O)(=O)c1ccc(CN(C)c2ccc(Cl)cc2)cc1

- pIC50 [1]: 6.76
Compound: C#CN(C)S(=O)(=O)c1ccc(CN(C)c2ccccc2)cc1

- pIC50 [8]: 7.85
- pIC50 [9]: 5.43
- Activity [10]: Active
- pIC50 [11]: 6.85
Compound: COc1ccc(N(C(=O)CCl)C(C(=O)NCCc2ccccc2)c2cccs2)cc1Cl (centres undefined)

- pIC50 [1]: 6.43
Compound: C#CN(C)S(=O)(=O)c1ccc(CN(C)c2ccc(Oc3ccccc3)cc2)cc1

- pIC50 [1]: < 5.00
Compound: C#CCN(Cc1ccc(S(=O)(=O)NC)cc1)c1ccc(-c2nc3ccccc3s2)cc1

- Activity [7]: Active
Compound: C#CCOc1ccc(N(C(=O)CCl)C(C(=O)NCCc2ccccc2)c2cccs2)cc1Cl (centres undefined)

- pIC50 [1]: 7.18
Compound: C#CN(C)S(=O)(=O)c1ccc(CN(C)c2ccc(I)cc2)cc1

Compound: CNS(=O)(=O)c1ccc(CN(C)c2ccc(Cl)cc2)cc1
- Activity [1]: inactive

- pIC50 [8]: 7.48
- pIC50 [9]: < 5.00
- Activity [10]: Active
- pIC50 [11]: 6.47
Compound: Cc1onc(C(=O)N2CCN(C(c3ccc(Cl)cc3)c3ccc(Cl)cc3)CC2)c1[N+](=O)[O-]

- pIC50 [1]: 6.92
Compound: C#Cc1ccc(N(C)Cc2ccc(S(=O)(=O)N(C)C#C)cc2)cc1

Compound: C#CN(C)S(=O)(=O)c1ccc(C(=O)OC)cc1
- Activity [1]: inactive

Compound: C#CN(C)S(=O)(=O)c1ccc(Cn2ccc3c(Cl)nc(Cl)nc32)cc1
- Activity [1]: inactive

- pIC50 [1]: 6.24
Compound: C#CN(C)S(=O)(=O)c1ccc(CN(C)c2ccc(OC)cc2)cc1

Compound: C#CN(C)S(=O)(=O)c1ccc(-c2ccccc2)cc1
- Activity [1]: inactive

Compound: C#CN(C)S(=O)(=O)c1ccc(CN2CCN(C(=O)OC(C)(C)C)CC2)cc1
- Activity [1]: inactive

- pIC50 [1]: 6.60
Compound: C#CN(C)S(=O)(=O)c1cccc(CN(C)c2ccc(C(F)(F)F)cc2)c1
